{
  "source": "patent US11446300B2",
  "about": "(Alexion Pharmaceuticals, Inc., priority 2015, dated 2022)",
  "key": {"[1]": {"tested_on": "GM-CSF signaling", "experiment": "Phase I study, whole blood assay of GM-CSF signaling", "assay_type": "in vivo", "details": "Homo sapiens; Patient 1; 65 mg PO QD", "procedure": "(§1) Pharmacokinetics (“PK”), pharmacodynamics (“PD”), and safety were monitored. Response was assessed by standard criteria. The level of inhibition of SYK and JAK was determined using a variety of whole blood assays measuring signaling via receptors for the B-cell antigen, IL2, IL4, IL6, and GM-CSF. Serum markers of tumor burden, including CCL3, CCL4, and other markers of inflammation (02M and CRP), were also being measured."}, "[2]": {"tested_on": "DLBCL cell lines", "experiment": "Panel of 15 DLBCL cell lines: viability, caspase 3 cleavage and Edu incorporation", "assay_type": "cell-based", "procedure": "Cell lines, purchased from ATCC, were screened using the CellTiter Glo (Promega) assay in 384 well plates using a ten-point concentration response curve to generate IC50's. Each IC50 value is an average of at least four replicate experiments. Subsequent analysis using a FACS based caspase 3 cleavage detection kit (BD Biosciences) and Edu incorporation were performed."}, "[3]": {"tested_on": "OCI-Ly18", "experiment": "Combination synergy, Cell Titer Glo, 72 hours", "assay_type": "cell-based", "details": "Homo sapiens, OCI-Ly18, 72 h", "procedure": "(§2) Synergistic anti-tumor activity in DLBCL cell lines was determined using the Cell Titer Glo assay. Briefly, 5,000 cells were plated in 96 well plates in complete tissue culture media. […] Cells were incubated with or without drug for 72 hours in a 37° C. tissue culture incubator prior to evaluation by CellTiter Glo as per the manufacturer protocol (Promega). Synergy was evaluated by calculating a combination index score, as described elsewhere (Jacquement et al, Molecular Cancer 2012) following IC50 determination using Prism software. The compounds are commercially available or are made according to synthetic methods known to those skilled in the art."}, "[4]": {"tested_on": "PKC", "experiment": "Phase I study, selectivity of signaling inhibition", "set-up": "species or system human", "details": "in vivo"}, "[5]": {"tested_on": "anti-IgM induced signalling", "experiment": "B cell receptor induced signalling in CLL cells, immunoblotting and flow cytometry", "assay_type": "cell-based, human", "details": "pre-treatment", "procedure": "(§3) Isolated CLL cells were cultured in RPMI-1640 with 15% fetal bovine serum (Gibco, Grand Island, N.Y., USA), penicillin (100 IU), and streptomycin (100 μg/mL), at a density of 1×10^7 cells/mL in the presence or absence of […] CpG, 100 ng/mL CD40L, 10 ng/mL IL-4. Anti-IgM stimulation was conducted with plate-bound anti-IgM (10 μg/mL). CLL cells were stimulated with 10 ng/mL IL-6 (R&D Systems, Minneapolis, Minn.), to detect the phosphorylation of JAK1/JAK2 (Cell Signaling Technology, Danvers, Mass.) and STAT3 (Cell Signaling Technology, Danvers, Mass., USA)."}, "[6]": {"tested_on": "U2932", "experiment": "Combination synergy, Cell Titer Glo, 72 hours", "assay_type": "cell-based", "details": "Homo sapiens", "procedure": "as §2, with “calculating” for “calculating a”"}, "[7]": {"tested_on": "TOLEDO", "experiment": "Combination synergy, Cell Titer Glo, 72 hours", "assay_type": "cell-based", "details": "Homo sapiens", "procedure": "as §2, with “calculating” for “calculating a”"}, "[8]": {"tested_on": "IL4 signaling", "experiment": "Phase I study, whole blood assay of IL4 receptor signaling", "assay_type": "in vivo, human", "details": "extrapolated from PK/PD fit of all data", "procedure": "as §1"}, "[9]": {"tested_on": "TOLEDO", "experiment": "DLBCL cell line viability, CellTiter Glo, ten-point curve", "assay_type": "cell-based"}, "[10]": {"tested_on": "VAL", "experiment": "DLBCL cell line viability, CellTiter Glo, ten-point curve", "assay_type": "cell-based", "details": "read-out: IC50 of Kinase Inhibitor in Cell Titer Glo Assay"}, "[11]": {"target": "T1, JAK2 (Homo sapiens, UniProt O60674)", "T1 construct": "endogenous in cells; host or cells: whole blood of dosed patients", "T1 sequence (O60674 whole entry)": "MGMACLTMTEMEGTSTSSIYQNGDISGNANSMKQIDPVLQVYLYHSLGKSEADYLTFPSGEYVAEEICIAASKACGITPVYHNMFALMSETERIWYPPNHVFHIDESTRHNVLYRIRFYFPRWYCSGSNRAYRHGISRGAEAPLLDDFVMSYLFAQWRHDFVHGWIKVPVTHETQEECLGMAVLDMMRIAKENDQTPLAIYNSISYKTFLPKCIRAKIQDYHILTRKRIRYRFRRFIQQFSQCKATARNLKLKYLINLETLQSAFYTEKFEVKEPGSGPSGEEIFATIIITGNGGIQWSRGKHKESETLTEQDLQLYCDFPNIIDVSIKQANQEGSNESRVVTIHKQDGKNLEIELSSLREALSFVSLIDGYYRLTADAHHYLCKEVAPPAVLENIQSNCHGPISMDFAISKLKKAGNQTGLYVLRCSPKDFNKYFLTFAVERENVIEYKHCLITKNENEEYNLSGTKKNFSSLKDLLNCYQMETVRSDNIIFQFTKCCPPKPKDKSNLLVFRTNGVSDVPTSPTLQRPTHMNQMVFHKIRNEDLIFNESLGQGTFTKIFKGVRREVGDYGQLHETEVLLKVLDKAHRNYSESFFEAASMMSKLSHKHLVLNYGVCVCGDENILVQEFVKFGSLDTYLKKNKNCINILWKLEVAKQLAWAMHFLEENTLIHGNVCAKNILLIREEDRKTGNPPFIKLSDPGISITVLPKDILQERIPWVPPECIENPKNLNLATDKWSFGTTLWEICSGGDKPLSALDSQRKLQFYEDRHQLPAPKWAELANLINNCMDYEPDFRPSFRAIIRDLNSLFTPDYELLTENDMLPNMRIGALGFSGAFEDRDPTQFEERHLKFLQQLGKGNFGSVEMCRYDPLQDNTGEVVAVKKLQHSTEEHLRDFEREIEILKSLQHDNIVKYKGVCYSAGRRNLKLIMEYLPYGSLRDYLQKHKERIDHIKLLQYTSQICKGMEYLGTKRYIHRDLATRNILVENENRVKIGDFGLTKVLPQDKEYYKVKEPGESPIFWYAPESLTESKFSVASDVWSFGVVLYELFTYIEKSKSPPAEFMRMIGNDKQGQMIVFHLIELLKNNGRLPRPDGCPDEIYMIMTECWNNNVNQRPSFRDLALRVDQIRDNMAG", "experiment": "Phase I study, selectivity of signaling inhibition", "details": "in vivo", "procedure": "as §1"}, "[12]": {"tested_on": "VAL", "experiment": "Combination synergy, Cell Titer Glo, 72 hours", "assay_type": "cell-based", "details": "VAL, 72 hours", "procedure": "as §2, with “calculating” for “calculating a”\nas §2"}, "[13]": {"tested_on": "DHL4 (SU-DHL4)", "experiment": "Combination synergy, Cell Titer Glo, 72 hours", "assay_type": "cell-based", "details": "Homo sapiens", "procedure": "as §2, with “calculating” for “calculating a”\nas §2"}, "[14]": {"tested_on": "DHL10", "experiment": "Combination synergy, Cell Titer Glo, 72 hours", "assay_type": "cell-based", "details": "DHL10, 72 hours", "procedure": "as §2, with “calculating” for “calculating a”\nas §2"}, "[15]": {"tested_on": "Lyl (OCI-Lyl)", "experiment": "Combination synergy, Cell Titer Glo, 72 hours", "assay_type": "cell-based", "procedure": "as §2, with “calculating” for “calculating a”\nas §2"}, "[16]": {"tested_on": "DHL6", "experiment": "Combination synergy, Cell Titer Glo, 72 hours", "assay_type": "cell-based", "details": "DHL6, 72 hours", "procedure": "as §2, with “calculating” for “calculating a”\nas §2"}, "[17]": {"tested_on": "DHL6", "experiment": "DLBCL cell line viability, CellTiter Glo, ten-point curve", "assay_type": "cell-based", "details": "read-out: IC50 of Kinase Inhibitor in Cell Titer Glo Assay"}, "[18]": {"tested_on": "CLL primary cells", "experiment": "CLL cell viability with IL-4/CD40L, PI/Annexin V staining", "assay_type": "cell-based, human", "details": "IL-4/CD40L for 6 hours, then drug for 24 hours; n=9", "procedure": "Viability was assessed using (A) PI/Annexin V staining by flow cytometry. A representative plot is shown or (B) summarized (n=9) showing % of control (PI/Annexin V negative cells). […] Points below the diagonal line represent synergistic interactions, above the line are additive.\nValues above the diagonal line represent additive interaction and those under the line are synergistic."}, "[19]": {"tested_on": "primary CLL cells", "experiment": "Primary CLL cell viability assay, PI staining, 72 hours", "assay_type": "cell-based, human", "details": "for IC50: Homo sapiens, CLL cell, 60 CLL samples, 72 hours", "procedure": "as §3\nTen thousand events in a live cell gate were counted by a FACS LSR2 (BD Biosciences) and the data was normalized to the matched vehicle control for each specimen (100%). IC50 was then generated using the GraphPad Prism 6 program (San Diego, Calif., USA)."}, "[20]": {"details": "single agents and cerdulatinib:ABT-199 ratios"}, "[21]": {"details": "single agents and cerdulatinib:ibrutinib ratios"}},
  "note": "Read-outs that look alike come from different tables or passages of the source.",
  "data": [
    {"compound": "CCS(=O)(=O)N1CCN(c2ccc(Nc3ncc(C(N)=O)c(NC4CC4)n3)cc2)CC1", "note": "[Cerdulatinib, 4-(cyclopropylamino)-2-(4-(4-(ethylsulfonyl)piperazin-1-yl)phenylamino)pyrimidine-5-carboxamide]", "values": [
      {"measurement": "inhibition at 65 mg", "setting": "[1]", "value": "~20", "unit": "%"},
      {"measurement": "anti-tumor activity in DLBCL cell lines bearing mutations to CARD11, MYD88, and A20", "setting": "[2]", "value": "maintained anti-tumor activity"},
      {"measurement": "cell lines that underwent apoptosis", "setting": "[2]; panel of 15 cell lines, ABC and GCB subtypes", "value": 9},
      {"measurement": "cell lines completely resistant", "setting": "[2]; screen of 15 DLBCL cell lines", "value": 3},
      {"measurement": "IC50", "setting": "[3]", "value": 1330, "unit": "nM"},
      {"measurement": "inhibition of PKC", "setting": "[4]", "value": "no inhibition"},
      {"measurement": "soluble and immobilised anti-IgM induced signalling pathways", "setting": "[5]", "value": "able to inhibit"},
      {"measurement": "IC50", "setting": "[6]; U2932, 72 h, read-out: IC50", "value": 3730, "unit": "nM"},
      {"measurement": "IC50", "setting": "[6]; U2932 cell line, read-out: IC50 value", "value": 3730, "unit": "nM"},
      {"measurement": "IC50", "setting": "[7]", "value": 5100, "unit": "nM"},
      {"measurement": "inhibition at 15 mg", "setting": "[8]; Homo sapiens, 15 mg/day, read-out: % Inh. IL4 (Cmin − Cmax)", "value": "16 to 42", "unit": "%"},
      {"measurement": "inhibition at 30 mg", "setting": "[8]; Homo sapiens, 30 mg/day, read-out: % Inh. IL4 (Cmin − Cmax)", "value": "26 to 57", "unit": "%"},
      {"measurement": "inhibition at 100 mg", "setting": "[8]; Homo sapiens, 100 mg/day (one patient), read-out: % Inh. IL4 (Cmin − Cmax)", "value": "41 to 72", "unit": "%"},
      {"measurement": "% Inh. IL4 (Cmin − Cmax)", "setting": "[8]; printed on the 40 mg/day line (45-65 mg/day lines empty)", "value": "63 − 78%"},
      {"measurement": "IC50", "setting": "[9]; Homo sapiens, TOLEDO cell line, read-out: IC50 of Kinase Inhibitor in Cell Titer Glo Assay", "value": 6900, "unit": "nM"},
      {"measurement": "response of cell line", "setting": "[9]; TOLEDO", "value": "resistant"},
      {"measurement": "IC50", "setting": "[10]", "value": 2700, "unit": "nM"},
      {"measurement": "inhibition of JAK2", "setting": "[11]", "value": "no inhibition"},
      {"measurement": "IC50", "setting": "[12]; [20]", "value": 1300, "unit": "nM"},
      {"measurement": "IC50", "setting": "[12]; [21]", "value": 1330, "unit": "nM"},
      {"measurement": "IC50", "setting": "[13]; SU-DHL-4, 72 h, DHL4, 72 hours, single agents and cerdulatinib:ABT-199 ratios, read-out: IC50", "value": 1490, "unit": "nM"},
      {"measurement": "IC50", "setting": "[13]; SU-DHL-4, 72 h, DHL4, 72 hours, single agents and cerdulatinib:ibrutinib ratios, read-out: IC50", "value": 1700, "unit": "nM"},
      {"measurement": "IC50", "setting": "[13]; SU-DHL-4, SU-DHL4 cell line, read-out: IC50 value", "value": 1490, "unit": "nM"},
      {"measurement": "IC50", "setting": "[14]; [20]", "value": 300, "unit": "nM"},
      {"measurement": "IC50", "setting": "[14]; [21]", "value": 220, "unit": "nM"},
      {"measurement": "IC50", "setting": "[15]", "value": 4300, "unit": "nM"},
      {"measurement": "IC50", "setting": "[16]; [20]", "value": 620, "unit": "nM"},
      {"measurement": "IC50", "setting": "[16]; [21]", "value": 560, "unit": "nM"},
      {"measurement": "IC50", "setting": "[17]", "value": 1200, "unit": "nM"},
      {"measurement": "CLL cell viability", "setting": "[18]", "value": "reduced cell viability to similar levels"},
      {"measurement": "IC50", "setting": "[19]; read-out: IC50 range", "value": "370 to 10000", "unit": "nM"},
      {"measurement": "IC50", "setting": "[19]; read-out: average IC50 for the cohort", "value": 2570, "unit": "nM"},
      {"measurement": "sensitivity of CLL cells with high-risk genetic abnormalities", "setting": "[19]; del (11q), trisomy 12, del (17p) versus del (13q) or none", "value": "more sensitive"},
      {"measurement": "sensitivity of CLL cells with unmutated IGHV versus mutated IGHV", "setting": "[19]; unmutated N=33, mutated N=27, P=0.0395", "value": "more sensitive"}
    ]}
  ]
}
